Results: US11780826B2 (Amgen Inc., priority 2017, dated 2023)

Test system: Bovine cardiac myofibrils
Assay: In vitro model of dose-dependent myofibril ATPase modulation (AC1.4, pyruvate kinase/lactate dehydrogenase-coupled ATPase assay at pCa25)
Type: biochemical
Settings: concentration at which ATPase activity was 1.4-fold higher than the bottom of the dose curve, mean of a minimum of two independent tests
Method in brief: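 We measure calcium-buffered ATPase activity of detergent-skinned bovine cardiac myofibrils at pH 6.80 and 22° C with 1 mM ATP, using a PK/LDH-coupled NADH readout at 340 nm. Values come from four-parameter dose-response fits, averaged over at least two independent runs.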

SMILES | AC1.4 [µM]
O=C(NC1CN(S(=O)(=O)N2CCC[C@H](C(=O)N3CCC[C@@H]3C(=O)NCc3ccc(C(F)(F)F)cc3)C2)C1)C1CCC1 [Example 754, 1-(((3S)-1-((3-((cyclobutylcarbonyl)amino)-1-azetidinyl)sulfonyl)-3-piperidinyl)carbonyl)-N-(4-(trifluoromethyl)benzyl)-D-prolinamide] | 7.453
N#CC1CN(S(=O)(=O)N2CCC[C@H](C(=O)N3CCC[C@@H]3C(=O)NCc3ccccc3)C2)C1 [Example 758, (R)—N-benzyl-1-((S)-1-((3-cyanoazetidin-1-yl)sulfonyl)piperidine-3-carbonyl)pyrrolidine-2-carboxamide] | 7.61
N#CC1CN(S(=O)(=O)c2cccc(C(=O)N3CCC[C@@H]3C(=O)NC3CC(C(F)(F)F)C3)c2)C1 (stereo partly drawn) [Example 759, 1-((3-((3-cyano-1-azetidinyl)sulfonyl)phenyl)carbonyl)-N-(cis-3-(trifluoromethyl)cyclobutyl)-D-prolinamide,1-((3-((3-cyano-1-azetidinyl)sulfonyl)phenyl)carbonyl)-N-(trans-3-(trifluoromethyl)cyclobutyl)-D-prolinamide] | 7.6347
O=C(NCc1ccc(C(F)(F)F)cc1)[C@H]1CCCN1C(=O)[C@H]1CCCN(S(=O)(=O)N2CC(F)(C(F)(F)F)C2)C1 [Example 760, 1-(((3S)-1-((3-fluoro-3-(trifluoromethyl)-1-azetidinyl)sulfonyl)-3-piperidinyl)carbonyl)-N-(4-(trifluoromethyl)benzyl)-D-prolinamide] | 7.661
COC(=O)CNS(=O)(=O)c1cccc(C(=O)N2CCC[C@@H]2C(=O)NCc2ccc(C(F)(F)F)cc2)c1 [Example 764, methyl N-((3-(((2R)-2-((4-(trifluoromethyl)benzyl)carbamoyl)-1-pyrrolidinyl)carbonyl)phenyl)sulfonyl)glycinate] | 7.912
Cc1ccc(C)c(CNC(=O)[C@H]2CCCN2C(=O)[C@H]2CCCN(S(=O)(=O)N3CC(C#N)C3)C2)c1 [Example 765, 1-(((3S)-1-((3-cyano-1-azetidinyl)sulfonyl)-3-piperidinyl)carbonyl)-N-(2,5-dimethylbenzyl)-D-prolinamide] | 7.9325
O=C(NCc1ccc(C(F)(F)F)cc1)[C@H]1CCCN1C(=O)[C@H]1CCCN(S(=O)(=O)C2CCOC2)C1 (stereo partly drawn) [Example 766, (2R)-1-((3S)-1-((tetrahydrofuran-3-yl)sulfonyl)piperidine-3-carbonyl)-N-(4-(trifluoromethyl)benzyl)pyrrolidine-2-carboxamide] | 7.933
N#CC1CN(S(=O)(=O)N2CCC[C@H](C(=O)N3CCC[C@@H]3C(=O)N[C@H](c3ccc(C(F)(F)F)cc3)C(F)(F)F)C2)C1 [Example 768, 1-(((3S)-1-((3-cyano-1-azetidinyl)sulfonyl)-3-piperidinyl)carbonyl)-N-((1R)-2,2,2-trifluoro-1-(4-(trifluoromethyl)phenyl)ethyl)-D-prolinamide] | 8.033
CC1CCN1S(=O)(=O)N1CCC[C@H](C(=O)N2CCC[C@@H]2C(=O)NCc2ccc(C(F)(F)F)cc2)C1 (stereo partly drawn) [Example 769, (2R)-1-((3S)-1-((2-methylazetidin-1-yl)sulfonyl)piperidine-3-carbonyl)-N-(4-(trifluoromethyl)benzyl)pyrrolidine-2-carboxamide] | 8.078
COc1ccc(Cl)cc1CNC(=O)[C@H]1CCCN1C(=O)[C@H]1CCCN(S(=O)(=O)N2CC(C#N)C2)C1 [Example 770, N-(5-chloro-2-methoxybenzyl)-1-(((3S)-1-((3-cyano-1-azetidinyl)sulfonyl)-3-piperidinyl)carbonyl)-D-prolinamide] | 8.1255
O=C(NCc1ccc(C(F)(F)F)cc1)[C@H]1CCCN1C(=O)[C@H]1CCCN(S(=O)(=O)N2CC(c3cccc(C(F)(F)F)c3)C2)C1 [Example 771, N-(4-(trifluoromethyl)benzyl)-1-(((3S)-1-((3-(3-(trifluoromethyl)phenyl)-1-azetidinyl)sulfonyl)-3-piperidinyl)carbonyl)-D-prolinamide] | 8.1415
O=C(NCc1ccc(C(F)(F)F)cc1)[C@H]1CCCN1C(=O)[C@H]1CCCN(S(=O)(=O)N2CCC(F)(F)C2)C1 [Example 773, 1-(((3S)-1-((3,3-difluoro-1-pyrrolidinyl)sulfonyl)-3-piperidinyl)carbonyl)-N-(4-(trifluoromethyl)benzyl)-D-prolinamide] | 8.21
Cc1nnc(CNS(=O)(=O)N2CCC[C@H](C(=O)N3CCC[C@@H]3C(=O)NCc3ccc(C(F)(F)F)cc3)C2)o1 [Example 774, 1-(((3S)-1-(((5-methyl-1,3,4-oxadiazol-2-yl)methyl)sulfamoyl)-3-piperidinyl)carbonyl)-N-(4-(trifluoromethyl)benzyl)-D-prolinamide] | 8.3045
COC(=O)[C@H]1C[C@H](S(=O)(=O)N2CCC[C@H](C(=O)N3CCC[C@@H]3C(=O)NCc3ccc(C(F)(F)F)cc3)C2)C1 [Example 775, methyltrans-3-(((3S)-3-(((2R)-2-((4-(trifluoromethyl)benzyl)carbamoyl)-1-pyrrolidinyl)carbonyl)-1-piperidinyl)sulfonyl)cyclobutanecarboxylate] | 8.31
COc1ccc([C@H](NC(=O)[C@H]2CCCN2C(=O)[C@H]2CCCN(S(=O)(=O)N3CC(C#N)C3)C2)C(F)(F)F)cc1F [Example 776, 1-(((3S)-1-((3-cyano-1-azetidinyl)sulfonyl)-3-piperidinyl)carbonyl)-N-((1S)-2,2,2-trifluoro-1-(3-fluoro-4-methoxyphenyl)ethyl)-D-prolinamide] | 8.3695
O=C(NCc1ccc(C(F)(F)F)cc1)[C@H]1CCCN1C(=O)[C@H]1CCCN(S(=O)(=O)C2CCC2)C1 [Example 780, (R)-1-((S)-1-(cyclobutylsulfonyl)piperidine-3-carbonyl)-N-(4-(trifluoromethyl)benzyl)pyrrolidine-2-carboxamide] | 8.4235

Second part, the compound after the results:

AC1.4 [µM] | SMILES
7.417 | CS(=N)(=O)c1cccc(C(=O)N2[C@@H](C(=O)N[C@@H](c3cc(F)c(Cl)cc3F)C3CC3)C[C@H]3C[C@H]32)c1 (stereo partly drawn) [Example 752, (1R,3R,5R)—N—((R)-(4-chloro-2,5-difluorophenyl)(cyclopropyl)methyl)-2-(3-(S-methylsulfonimidoyl)benzoyl)-2-azabicyclo[3.1.0]hexane-3-carboxamide]
7.42 | CS(=O)(=O)c1cccc(C(=O)N2[C@@H](C(=O)N[C@@H]3CCc4cc(Cl)ccc43)C[C@H]3C[C@H]32)c1 [Example 753, (1R,3R,5R)-N-((1R)-5-chloro-2,3-dihydro-1H-inden-1-yl)-2-(3-(methylsulfonyl)benzoyl)-2-azabicyclo[3.1.0]hexane-3-carboxamide]
7.5435 | Nc1ccccc1C(=O)N1[C@@H](C(=O)N[C@@H](c2ccc(C(F)(F)F)cc2F)C2CC2)C[C@H]2C[C@H]21 [Example 755, (1R,3R,5R)-2-(2-aminobenzoyl)-N-((R)-cyclopropyl(2-fluoro-4-(trifluoromethyl)phenyl)methyl)-2-azabicyclo[3.1.0]hexane-3-carboxamide]
7.5875 | CS(=O)(=O)c1cccc(C(=O)N2CC[C@@H](F)[C@@H]2C(=O)N[C@@H](c2ccc(C(F)(F)F)cc2)C2CC2)c1 [Example 756, (3R)-N-((R)-cyclopropyl(4-(trifluoromethyl)phenyl)methyl)-3-fluoro-1-(3-(methylsulfonyl)benzoyl)-D-prolinamide]
7.6005 | CC(O)C(NC(=O)[C@H]1C[C@H]2C[C@H]2N1C(=O)c1cccc(S(C)(=O)=O)c1)c1cc(F)c(Cl)cc1F (stereo partly drawn) [Example 757, (1R,3R,5R)-N-(1-(4-chloro-2,5-difluorophenyl)-2-hydroxypropyl)-2-(3-(methylsulfonyl)benzoyl)-2-azabicyclo[3.1.0]hexane-3-carboxamide]
7.696 | CS(=O)(=O)c1cc(C(=O)N2CCC[C@@H]2C(=O)NC(c2ccc(C(F)(F)F)cc2F)C2CC2)ccn1 (stereo partly drawn) [Example 761, (2R)-N-(cyclopropyl(2-fluoro-4-(trifluoromethyl)phenyl)methyl)-1-(2-(methylsulfonyl)isonicotinoyl)pyrrolidine-2-carboxamide]
7.879 | CC(NC(=O)[C@H]1CCCN1C(=O)[C@H]1CCCN(S(=O)(=O)N2CC(C#N)C2)C1)c1cccc(F)c1F (stereo partly drawn) [Example 763, (2R)-1-((S)-1-((3-cyanoazetidin-1-yl)sulfonyl)piperidine-3-carbonyl)-N-(1-(2,3-difluorophenyl)ethyl)pyrrolidine-2-carboxamide]
8.015 | CS(=O)(=O)c1cncc(C(=O)N2CC(F)(F)C2C(=O)N[C@@H](c2cc(F)c(C(F)(F)F)cc2F)C2CC2)c1 (stereo partly drawn) [Example 767, N-((R)-cyclopropyl(2,5-difluoro-4-(trifluoromethyl)phenyl)methyl)-3,3-difluoro-1-(5-(methylsulfonyl)nicotinoyl)azetidine-2-carboxamide]
8.175 | CC[C@@H](NC(=O)[C@H]1CCCN1C(=O)c1cccc(S(C)(=O)=O)c1)c1ccc(Cl)c(F)c1 [Example 772, N-((1R)-1-(4-chloro-3-fluorophenyl)propyl)-1-(3-(methylsulfonyl)benzoyl)-D-prolinamide]
8.3805 | NS(=O)(=O)c1cc(C(=O)N2CCC[C@@H]2C(=O)N[C@@H](c2ccc(C(F)(F)F)cc2F)C2CC2)c(Cl)cc1F [Example 777, 1-(2-chloro-4-fluoro-5-sulfamoylbenzoyl)-N-((R)-cyclopropyl(2-fluoro-4-(trifluoromethyl)phenyl)methyl)-D-prolinamide]
8.423 | CS(=O)(=O)c1cc(C(=O)N2[C@@H](C(=O)N[C@@H](c3cc(F)c(Cl)cc3F)C3CC3)C[C@@H]3C[C@@H]32)ccn1 [Example 779, (1S,3R,5S)-N-((R)-(4-chloro-2,5-difluorophenyl)(cyclopropyl)methyl)-2-((2-(methylsulfonyl)-4-pyridinyl)carbonyl)-2-azabicyclo[3.1.0]hexane-3-carboxamide]
